Assay results as given in patent US20090131493A1, “SUBSTITUTED BENZIMIDAZOLES FOR TREATMENT OF HISTOMONIASIS” (BAYER HEALTHCARE AG, priority 2005, published 2009).

Columns and labels:
Histomonas meleagridis [1] = test: Test 2: cage trial, turkey chicks intracloacally infected with Histomonas meleagridis, liver and caecum lesions; assay type: in vivo; settings: for Caecum lesions / Liver lesions: scale 0 (no lesions) to 4 (most severe lesions)
Text: (§1) Young, susceptible turkey cock chicks were kept in cages and underwent intracloacal infection in a conventional way at an age of 2 weeks with about 5 log 10 infectious Histomonas meleagridis microorganisms. With the test groups which had been treated with the test compounds, two control groups were kept for comparison purposes (infected/untreated and uninfected/untreated). The test groups consisted of 6 to 10 turkeys. The test compounds, either the compound of the formula (I-1) or (I-2), were administered to the treated test groups 1 day before the infection and 13 days thereafter, with the feed. At the end of the trial, the animals were sacrificed and examined for lesions typical of histomoniasis (“blackhead disease”).

Histomonas meleagridis [2] = test: Test 1: cage trial, turkey chicks intracloacally infected with Histomonas meleagridis, weight gain; assay type: in vivo; settings: 1 day before to 13 days after infection, uninfected/untreated group 4 set at 100%
Text: as §1

[3] = turkey cock; cited from earlier work
Heterakis gallinarum = settings: treatment for 14 days after the time of infection; directed against Heterakis gallinarum, not H. meleagridis; cited from earlier work
histomonas = settings: cited from earlier work

Which Caecum lesions (Histomonas meleagridis [1]; 5 ppm in the feed) does the source give for `CCN(Cn1c(C(F)(F)F)nc2c(Br)cc3c(c21)OC(F)(F)C(F)(F)O3)C(=O)OC` [compound (I-1)] here?
Its Caecum lesions is 3.5.

What about the Liver lesions (Histomonas meleagridis [1]; 5 ppm in the feed) of the same molecule?
The Liver lesions was 0.8.

And the Caecum lesions (Histomonas meleagridis [1]; 15 ppm in the feed)?
Its Caecum lesions is 3.

What about the Liver lesions (Histomonas meleagridis [1]; 15 ppm in the feed) of the same molecule?
Its Liver lesions is 0.

And the Weight gain (Histomonas meleagridis [2]; 5 ppm in the feed)?
Its Weight gain is 61%.

For `Cc1oc(=O)oc1Cn1c(C(F)(F)F)nc2c(Cl)cc3c(c21)OC(F)(F)C(F)(F)O3` [compound (I-2)], which Caecum lesions (Histomonas meleagridis [1]; 10 ppm in the feed) is on record?
Its Caecum lesions is 2.1.

And the Liver lesions (Histomonas meleagridis [1]; 10 ppm in the feed)?
The Liver lesions was 0.

And the Caecum lesions (Histomonas meleagridis [1]; 30 ppm in the feed)?
Its Caecum lesions is 0.8.

What about the Liver lesions (Histomonas meleagridis [1]; 30 ppm in the feed) of the same molecule?
The Liver lesions was 0.

What about the “effect on caecum lesions (in words)” value (Histomonas meleagridis [1]; Test 2, summary in text) of the same molecule?
The value was “reduced the caecum lesions”.

What about the Weight gain (Histomonas meleagridis [2]; 10 ppm in the feed) of the same molecule?
Its Weight gain is 35%.

Which “effect of doubling the dosage” value [3] does the source give for `O=[N+]([O-])c1cc([As](=O)(O)O)ccc1O` [roxarsone] here?
The value was “impaired motor functions”.

Which results are given for `COC(=O)Nc1nc2ccc(Sc3ccccc3)cc2[nH]1` [fenbendazole]?
activity in vivo (Heterakis gallinarum): prophylactic activity; activity on histomonas in vitro (histomonas): inadequate activity

Which results are given for `CCCSc1ccc2nc(NC(=O)OC)[nH]c2c1` [albendazole]?
activity in vivo (Heterakis gallinarum): prophylactic activity; activity on histomonas in vitro (histomonas): inadequate activity
